According to patent publication US8765684B2, “Solid materials of {[(2S,5R,8S,11S)-5-benzyl-11-(3-guanidino-propyl)-8-isopropyl-7-methyl-3,6,9,12,15-pentaoxo-1,4,7,10,13-pentaaza-cyclopentadec-2-yl]-acetic acid} and methods for obtaining them” (Merck Patent GmbH, priority 2009, dated 2014):
Values joined by “and” are separate entries in the source; they are usually repeats but may differ in a detail not shown here. Equal values may be shown once.

Columns and labels:
[1] = Competitive slurry conversion of pseudopolymorphic form and form A1 (1:1) in Water/Methanol and Water/Ethanol mixtures; format: physicochemical; conditions: 1:1 pseudopolymorphic form + A1
Description: b) Additionally, crystalline tetrasolvates according invention and especially crystalline forms S1 and S2 can be manufactured by competitive slurry conversion experiments with a mixture of a pseudopolymorphic form (for example S1, S2, S3 or mixtures of these) with form A1 (1:1) in Water/Methanol and Water/Ethanol mixtures with different alcohol contents at different temperatures, respectively.
(§1) Approx. 20 mg of a pseudopolymorphic form (for example S1, S2, S3 or mixtures of these) and 20 mg of form A1 of Cilengitide are dispersed in 300 μl Water/alcohol mixture at 0° C. or room temperature (25° C.). The dispersion is stirred for 24 h and additionally for 3 weeks at RT (25° C.) (long-term experiment) by a magnetic stirrer and finally filtered
Approx. 20 mg of a pseudopolymorphic form (for example S1, S2, S3 or mixtures of these) and 20 mg of form A1 of Cilengitide are dispersed in 300 μl Water/alcohol mixture at 50° C. The dispersion is stirred for 24 h by a magnetic stirrer and finally filtered.
Additionally form A1 can be manufactured by competitive slurry conversion experiments with a mixture of a pseudopolymorphic form (for example S1, S2, S3 or mixtures of these) and form A1 (1:1) in Water/Methanol and Water/Ethanol mixtures with different alcohol contents at different temperatures. In the following table the conditions for the experiments leading to the pure form A1 are listed.
as §1, with “C.,” for “C. or”, “and 50° C.” for “(25° C.).”, “filtered.” for “filtered”

[2] = Conditioning of amorphous Cilengitide under mixed water-ethanol atmospheres (stoichiometry by KF, HS-GC, NMR); format: physicochemical
Description: Stoichiometries as determined by Karl-Fischer titration (KF) for quantification of water and head space gas-chromatography (HS-GC) (and nuclear magnetic resonance spectroscopy (NMR)) for quantification of ethanol are depicted in Table 3. In the table also points representing stochiometries with more than 4 molecules of water per molecule of Cilengitide are visible. As there is no space for more than 4 molecules of water in the crystal lattice excess amounts of more than 4 molecules of water represent adsorbed moisture.
Also the modifications and the lattice parameters from indexing of the diffractograms are compiled in Table 3.

[3] = per 1 mol Cil, EtOH liquid phase 10 v %
[4] = per 1 mol Cil, EtOH liquid phase 20 v %
[5] = per 1 mol Cil, EtOH liquid phase 50 v %
[6] = per 1 mol Cil, EtOH liquid phase 70 v %
[7] = per 1 mol Cil, EtOH liquid phase 80 v %
[8] = per 1 mol Cil, EtOH liquid phase 85 v %
[9] = per 1 mol Cil, EtOH liquid phase 90 v %
[10] = per 1 mol Cil, EtOH liquid phase 95 v %
[11] = per 1 mol Cil, EtOH liquid phase 100 v %

Substance: cyclo-(Arg-Gly-Asp-DPhe-NMe-Val) [crystalline form S2]
- Ethanol in the mixture with Water leading to form S2 ([1]; 0° C. for 1 day): 20-80 v %
- Ethanol in the mixture with Water leading to form S2 ([1]; RT for 3 weeks): 40-70 v %
- Ethanol in the mixture with Water leading to form S2 ([1]; RT for 1 day): 40-80 v %
- EtOH HS-GC ([2]; EtOH liquid phase 10 v %): 3.2 wt %
- H2O KF ([2]; EtOH liquid phase 10 v %): 9.5 wt %
- Σ TG ([2]; EtOH liquid phase 10 v %): 12.5 wt %
- EtOH HS-GC ([2]; EtOH liquid phase 20 v %): 4.3 wt %
- H2O KF ([2]; EtOH liquid phase 20 v %): 8.4 wt %
- Σ TG ([2]; EtOH liquid phase 20 v %): 13.0 wt %
- EtOH HS-GC ([2]; EtOH liquid phase 50 v %): 6.9 wt % and 6.2 wt %
- H2O KF ([2]; EtOH liquid phase 50 v %): 7.8 wt % and 6.8 wt %
- Σ TG ([2]; EtOH liquid phase 50 v %): 13.7 wt % and 12.6 wt %
- EtOH HS-GC ([2]; EtOH liquid phase 70 v %): 6.4 wt %
- H2O KF ([2]; EtOH liquid phase 70 v %): 6.2 wt %
- Σ TG ([2]; EtOH liquid phase 70 v %): 12.4 wt %
- EtOH HS-GC ([2]; EtOH liquid phase 80 v %): 6.7 wt %
- H2O KF ([2]; EtOH liquid phase 80 v %): 5.9 wt %
- Σ TG ([2]; EtOH liquid phase 80 v %): 12.8 wt %
- EtOH HS-GC ([2]; EtOH liquid phase 85 v %): 9.1 wt %
- H2O KF ([2]; EtOH liquid phase 85 v %): 4.1 wt %
- Σ TG ([2]; EtOH liquid phase 85 v %): 12.9 wt %
- EtOH HS-GC ([2]; EtOH liquid phase 90 v %): 12.5 wt %
- H2O KF ([2]; EtOH liquid phase 90 v %): 1.7 wt % and 1.2 wt %
- Σ TG ([2]; EtOH liquid phase 90 v %): 13.8 wt % and 13.6 wt %
- EtOH HS-GC ([2]; EtOH liquid phase 95 v %): 13.1 wt %
- H2O KF ([2]; EtOH liquid phase 95 v %): 0.4 wt %
- Σ TG ([2]; EtOH liquid phase 95 v %): 13.7 wt %
- EtOH HS-GC ([2]; EtOH liquid phase 100 v %): 13.6 wt %
- H2O KF ([2]; EtOH liquid phase 100 v %): 0.7 wt %
- Σ TG ([2]; EtOH liquid phase 100 v %): 14.0 wt %
- EtOH HS-GC [2, 3]: 0.5 mol
- EtOH NMR [2, 3]: 0.5 mol
- H2O KF [2, 3]: 3.6 mol
- EtOH HS-GC [2, 4]: 0.6 mol
- EtOH NMR [2, 4]: 0.7 mol
- H2O KF [2, 4]: 3.1 mol
- EtOH HS-GC [2, 5]: 1.0 mol and 0.9 mol
- EtOH NMR [2, 5]: 1.0 mol
- H2O KF [2, 5]: 3.0 mol and 2.5 mol
- EtOH HS-GC [2, 6]: 0.9 mol
- H2O KF [2, 6]: 2.3 mol
- EtOH HS-GC [2, 7]: 1.0 mol
- H2O KF [2, 7]: 2.2 mol
- EtOH HS-GC [2, 8]: 1.3 mol
- H2O KF [2, 8]: 1.5 mol
- EtOH HS-GC [2, 9]: 1.9 mol
- H2O KF [2, 9]: 0.6 mol and 0.5 mol
- EtOH HS-GC [2, 10]: 1.9 mol
- H2O KF [2, 10]: 0.2 mol
- EtOH HS-GC [2, 11]: 2.0 mol
- EtOH NMR [2, 11]: 2.0 mol
- H2O KF [2, 11]: 0.3 mol
